# Literature values, collected in US7592468B2, “Production of Δ 9 tetrahydrocannabinol” (Resolution Chemicals Limited, priority 2003, dated 2009).
# Details: greater than Δ8-THC
smiles,measurement,value
"CCCCCc1cc(O)c2c(c1)OC(C)(C)[C@@H]1CCC(C)=C[C@@H]21 [Δ9-THC, Delta 9 tetrahydrocannabinol]",psychomimetic activity relative to Δ8-THC,20 times
